The target in one experiment is CDK2 (human) (UniProt P24941).
For experiment [1], the target named is EGFR (UniProt P00533).
In experiment [2] the target is MAPK14 (UniProt Q16539). The experiment in a line: Inhibition of MAPK14 Kinase Activity.
Experiment [3] deals with CDK2 (UniProt P24941). The experiment in a line: Enzyme Assay.
The target of experiment [4] is MAPK14 (UniProt Q16539). The experiment in a line: Inhibition of MAPK14 Kinase Activity (Binding Assay).
The target of experiment [5] is MAPK14 (UniProt Q16539). The experiment in a line: Inhibition of MAPK14 Kinase Activity (Spectrophometric Assay). To be noted: concentration not given here.
The target in experiment [6] is MAPK14 (UniProt Q16539). The experiment in a line: Inhibition of TNF-alpha Production.
In experiment [7] the target is CDK2 (UniProt P24941). The experiment in a line: Enzyme Assay. This is another data set of the same source.
Experiment [8] addresses EGFR (UniProt P00533). This is another data set of the same source.
The target in experiment [9] is PIK3CA (human), P42336 [Assessment of PIK3CA (Mutant) Kinase Activity in MCF-7.1 Cell Line]. Put plainly: Assessment of PIK3CA (Mutant) Kinase Activity in MCF-7.1 Cell Line. The following applies: mcf-7.
Chain of PIK3CA (human), P42336 [Assessment of PIK3CA (Mutant) Kinase Activity in MCF-7.1 Cell Line] (P42336 whole entry, looked up, change not shown): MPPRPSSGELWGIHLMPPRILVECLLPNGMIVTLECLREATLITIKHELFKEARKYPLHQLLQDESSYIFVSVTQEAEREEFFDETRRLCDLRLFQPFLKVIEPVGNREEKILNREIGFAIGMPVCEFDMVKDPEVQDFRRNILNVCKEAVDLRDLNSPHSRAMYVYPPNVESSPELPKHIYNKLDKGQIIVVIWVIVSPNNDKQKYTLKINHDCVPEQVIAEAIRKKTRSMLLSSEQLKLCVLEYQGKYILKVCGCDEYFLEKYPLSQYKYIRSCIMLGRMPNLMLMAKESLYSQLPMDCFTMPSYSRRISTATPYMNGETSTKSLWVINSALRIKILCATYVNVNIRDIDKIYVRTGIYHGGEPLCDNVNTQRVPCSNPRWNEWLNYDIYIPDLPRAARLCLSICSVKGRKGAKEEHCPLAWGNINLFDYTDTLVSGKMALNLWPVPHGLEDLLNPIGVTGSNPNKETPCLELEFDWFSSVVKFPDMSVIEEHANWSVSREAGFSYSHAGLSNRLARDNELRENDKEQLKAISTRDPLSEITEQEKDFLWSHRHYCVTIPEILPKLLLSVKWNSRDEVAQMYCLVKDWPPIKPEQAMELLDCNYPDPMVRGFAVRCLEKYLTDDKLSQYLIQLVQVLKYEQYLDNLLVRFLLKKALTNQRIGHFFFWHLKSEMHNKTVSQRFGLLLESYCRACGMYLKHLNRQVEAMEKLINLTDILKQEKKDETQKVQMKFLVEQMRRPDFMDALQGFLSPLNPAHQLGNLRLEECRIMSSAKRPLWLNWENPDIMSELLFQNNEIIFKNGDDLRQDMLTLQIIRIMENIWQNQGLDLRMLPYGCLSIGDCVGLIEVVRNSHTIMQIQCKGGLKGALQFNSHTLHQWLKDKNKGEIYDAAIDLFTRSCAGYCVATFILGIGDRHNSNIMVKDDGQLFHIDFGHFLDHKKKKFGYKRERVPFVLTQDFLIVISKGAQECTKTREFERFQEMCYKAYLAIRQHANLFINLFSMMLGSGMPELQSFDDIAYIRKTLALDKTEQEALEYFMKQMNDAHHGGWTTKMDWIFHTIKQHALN
Experiment [10] deals with EGFR (human) (UniProt P00533). The following applies: A431.
Chain of EGFR (human) (P00533 whole entry, looked up): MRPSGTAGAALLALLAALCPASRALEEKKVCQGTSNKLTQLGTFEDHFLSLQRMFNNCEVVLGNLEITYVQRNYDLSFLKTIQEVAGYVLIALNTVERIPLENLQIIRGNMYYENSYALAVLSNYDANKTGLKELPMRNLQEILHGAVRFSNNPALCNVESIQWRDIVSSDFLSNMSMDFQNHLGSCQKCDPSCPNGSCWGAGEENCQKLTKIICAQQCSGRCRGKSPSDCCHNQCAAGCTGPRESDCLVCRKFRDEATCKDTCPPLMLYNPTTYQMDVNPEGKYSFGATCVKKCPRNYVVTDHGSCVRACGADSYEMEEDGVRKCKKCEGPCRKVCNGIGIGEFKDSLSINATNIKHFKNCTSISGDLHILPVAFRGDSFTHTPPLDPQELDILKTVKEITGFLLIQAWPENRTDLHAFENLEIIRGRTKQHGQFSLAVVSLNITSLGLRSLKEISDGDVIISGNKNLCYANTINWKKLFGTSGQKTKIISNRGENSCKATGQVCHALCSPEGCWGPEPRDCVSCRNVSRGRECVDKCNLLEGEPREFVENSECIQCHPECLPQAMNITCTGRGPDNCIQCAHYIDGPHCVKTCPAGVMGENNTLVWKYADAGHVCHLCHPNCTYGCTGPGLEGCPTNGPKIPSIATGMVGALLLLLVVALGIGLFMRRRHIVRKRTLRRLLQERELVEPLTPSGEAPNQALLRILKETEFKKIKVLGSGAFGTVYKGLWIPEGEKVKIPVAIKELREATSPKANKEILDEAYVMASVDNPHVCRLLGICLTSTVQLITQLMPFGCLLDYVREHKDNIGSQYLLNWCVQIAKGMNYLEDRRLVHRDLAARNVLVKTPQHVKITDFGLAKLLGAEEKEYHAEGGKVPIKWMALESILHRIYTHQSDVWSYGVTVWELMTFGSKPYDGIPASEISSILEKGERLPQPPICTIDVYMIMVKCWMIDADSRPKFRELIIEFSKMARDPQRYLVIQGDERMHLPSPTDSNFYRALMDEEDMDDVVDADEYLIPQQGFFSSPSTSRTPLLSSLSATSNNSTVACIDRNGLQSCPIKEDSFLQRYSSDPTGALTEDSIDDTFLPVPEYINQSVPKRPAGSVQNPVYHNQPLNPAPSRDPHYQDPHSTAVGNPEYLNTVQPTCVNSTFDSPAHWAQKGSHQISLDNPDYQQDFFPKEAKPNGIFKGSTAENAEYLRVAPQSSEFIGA
In experiment [11] the target is PIK3CA (human) (UniProt P42336). Put plainly: Inhibition of PIK3CA Kinase Activity in HeLa Cells.
Chain of PIK3CA (human) (P42336 whole entry, looked up): as the sequence (P42336 whole entry, looked up, change not shown) above
The target in experiment [12] is EGFR (human) (UniProt P00533). The following applies: a431.
Experiment [13] concerns the target MAPK14 (human) (UniProt Q16539). Put plainly: Inhibition of MAPK14 Kinase Activity.
For experiment [14], the target named is EGFR (UniProt P00533). The source holds these as a separate data set.
Another experiment has as its target ROCK2 (UniProt O75116). Put plainly: Inhibition of ROCK-II Kinase Activity. The following applies: concentration not given here.
Experiment [15] deals with EGFR (UniProt P00533). The source holds these as a separate data set.
Experiment [16] deals with PIK3CA (human) (UniProt P42336). Put plainly: Inhibition of PIK3CA Kinase Activity (FP Assay).
Experiment [17] addresses MAPK14 (UniProt Q16539). Put plainly: CSBP binding - Inhibition of RBL-1 5 Lipoxygenase Enzyme Assay.
In experiment [18] the target is MAPK14 (UniProt Q16539). The experiment in a line: CSBP binding - Inhibition of Prostaglandin H Synthase Type-1 Enzyme Assay.
Experiment [19] addresses EGFR (human) (UniProt P00533). To be noted: hn5.
The target in experiment [20] is EGFR (human) (UniProt P00533).
For experiment [21], the target named is EGFR (human) (UniProt P00533). To be noted: hn5. The source holds these as a separate data set.
Experiment [22] has as its target MAPK14 (human) (UniProt Q16539). The experiment in a line: Inhibition of MAPK14 Kinase Activity. The source holds these as a separate data set.
Experiment [23] has as its target EGFR (human) (UniProt P00533). To be noted: hn5. The source holds these as a separate data set.

pEC50, pIC50, pKi: −log10 of the molar value.

Chain of EGFR (P00533 whole entry, looked up): as the sequence (P00533 whole entry, looked up) above
Chain of MAPK14 (human) (Q16539 whole entry, looked up): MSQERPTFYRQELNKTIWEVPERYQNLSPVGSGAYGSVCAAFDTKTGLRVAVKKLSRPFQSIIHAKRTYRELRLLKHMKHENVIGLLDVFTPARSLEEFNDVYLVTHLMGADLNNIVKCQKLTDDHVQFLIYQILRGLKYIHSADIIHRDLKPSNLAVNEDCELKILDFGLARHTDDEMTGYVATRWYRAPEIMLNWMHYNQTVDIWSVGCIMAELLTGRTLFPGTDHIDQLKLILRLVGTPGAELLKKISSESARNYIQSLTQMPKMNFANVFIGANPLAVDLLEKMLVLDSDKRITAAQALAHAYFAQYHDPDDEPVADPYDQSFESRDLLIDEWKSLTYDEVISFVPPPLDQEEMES
Chain of MAPK14 (Q16539 whole entry, looked up): as above

For `N=C(N)NS(=O)(=O)c1ccc(NC2=Cc3ccc(C(=O)c4c(Cl)cccc4Cl)cc3C2)cc1`, on CDK2 (human), the pIC50 was 6.60. Consider `CCS(=O)(=O)c1ccc(OC)c(Nc2ncc(-c3cccc(-c4ccccn4)c3)o2)c1`, for which the pIC50 at EGFR [1] was < 5.00; on MAPK14 [2], < 5.00; on CDK2 [3] it was 5.77.

Regarding `CCS(=O)(=O)c1ccc(OC)c(Nc2ncc(-c3cccc(-c4ccccc4F)c3)o2)c1`, the pIC50 against EGFR [1] and against MAPK14 [2] was < 5.00 throughout. Consider `CC12CC(C(=O)O)CC(C)(C1)C(=O)N(Cc1cccc(-n3nc(C(C)(C)C)cc3NC(=O)Nc3ccc(Cl)cc3)c1)C2=O` (stereo not given), for which the pIC50 on MAPK14 [4] is 5.00. Also, at MAPK14 [5], the inhibition was determined as 70%. On to `CN1CC2CCC1CC2Nc1cc(-c2ccccc2Cl)c2c(c1)N(c1c(Cl)cccc1Cl)C(=O)NC2` (stereo not given), for which the negative-log IC50 (pIC50) at MAPK14 [2] is 9.40; on MAPK14 [6], 7.70. As to `Cc1c(-c2ccnc(Nc3cccc(CCNS(C)(=O)=O)c3)n2)sc(=O)n1C`, the negative logarithm of the Ki (pKi) on CDK2 [7] is 7.38; at CDK2 [3], 7.41.

As for `COc1cc2c(NC3=CC(=O)C(OC(CF)CF)=CC3=O)ncnc2cc1OCC1CCN(C)CC1`, the pIC50 against EGFR [8] was 3.93 to 5.74. As for `Cc1nc(N)ncc1-c1nc(N2CCOCC2)c2sc(CN3CCN(S(C)(=O)=O)CC3)cc2n1`, the pIC50 in experiment [9] is 6.54. Compound `Cc1ccc(Sc2cccc3[nH]c4nc(N)nc(N)c4c23)cc1` gave a pIC50 on EGFR (human) [10] of 4.85. The same compound had a pEC50 at PIK3CA (human) [11] of 4.91. Take `N#Cc1cnc2cnc(NCc3cccnc3)cc2c1NC1CCCCCC1`: the pIC50 against EGFR (human) [12] and on MAPK14 (human) [13] was < 4.40 throughout.

Compound `CN1CCC(Oc2cccc3ncnc(Nc4ccc(OCc5ccccn5)c(Cl)c4)c23)CC1` showed a pIC50 at EGFR [14] of 6.96. For the compound `Brc1c(Br)c(Br)c2[nH]nnc2c1Br`, the inhibition against ROCK2 is 9%; against MAPK14 [2] (concentration not given here) it was -7%.

With `COc1ccc(C#CC(C)(C)N)cc1-c1n[nH]c2nc(Nc3ccc(F)cc3F)ccc12`, the inhibition against EGFR [15] (concentration not given here) was -43%. The compound `COC[C@H]1OC(=O)/C(=C/N(CCN(C)C)C(C)(C)C)C2=C(O)C(=O)C3=C([C@H](OC(C)=O)C[C@@]4(C)C3CC[C@@H]4O)[C@]21C` (stereo not given in full) gave a pIC50 against PIK3CA (human) [16] of 8.02.

As to `Fc1ccc(-c2nc[nH]c2-c2ccncc2)cc1`, the pIC50 at MAPK14 [17] and on MAPK14 [18] was < 4.00 each time.

As for `CN1CC2CCC1CC2Nc1cc2c(ccc(=O)n2-c2c(Cl)cccc2Cl)c(-c2ccccc2Cl)n1` (stereo not given), the values for the pIC50 on MAPK14 [2] and against MAPK14 [6] were 9.40 and 7.62, respectively. `COC1=CC(=O)C(Nc2ncnc3cc(OCC4CCN(C)CC4)c(OC)cc23)=CC1=O` showed a negative-log IC50 (pIC50) against EGFR [8] of 3.70 to 5.66.

At EGFR (human) [10], `Nc1nc(N)c2c(n1)[nH]c1cccc(Sc3ccccc3)c12` had a pIC50 of 4.31. Moreover, the negative-log EC50 (pEC50) on PIK3CA (human) [11] is 4.67. Consider `COc1ccc(C#CC(C)(C)O)cc1-c1n[nH]c2nc(Nc3ccc(F)cc3F)ncc12`, for which the pIC50 on EGFR [15] is 5.28. As for `O=S(=O)(CCNCc1ccc(-c2ccc3ncnc(Nc4ccc(OCc5cccc(F)c5)c(Cl)c4)c3c2)o1)c1ccccn1`, the pIC50 was 5.81 at EGFR (human) [19] and 7.72 against EGFR (human) [20]. In turn, `OCc1ccc(-c2cc3ncnc(Nc4ccc(OCc5cccc(F)c5)c(Cl)c4)c3s2)o1` had a pIC50 at EGFR (human) [21] of 7.00. Regarding `CONC(=O)c1ccc(C)c(Nc2nc(NCC3CCCC(CN)C3)nc(NC3CCCCC3C)n2)c1` (stereo not given), the pIC50 against MAPK14 (human) [22] and on MAPK14 (human) [13] was 8.70 throughout. `CS(=O)(=O)CCNCCCCOc1ccc2ncnc(Nc3ccc(F)c(Cl)c3)c2c1`: the pIC50 against EGFR (human) [23] was 7.15. For `CONC(=O)c1ccc(C)c(Nc2nc(NCC3CCCC(CN)C3)nc(NC3CCCCC3)n2)c1` (stereo not given), the pIC50 at MAPK14 (human) [22] and against MAPK14 (human) [13] was 8.70 in each case. Turning to `N#Cc1cnc2ccc(NCc3c[nH]cn3)cc2c1Nc1ccc(F)c(Cl)c1`, the pIC50 at EGFR (human) [12] was 7.52.

The record behind these values is the Kinase Knowledgebase extract (Sharma et al. 2016).
